Values of other authors in US9068996B2, “Analyte detection method” (SPHERE MEDICAL LIMITED, priority 2010, dated 2015).
Where two headings read alike, the source gives them in different places.

Details: for average blood propofol concentration required: patients

Structure (SMILES): CC(C)c1cccc(C(C)C)c1O [propofol, 2,6-di-isopropylphenol]
- Blood propofol concentration at which 50% of patients (EC50) were awake (after surgery, awake): 1.07 µg/mL
- Blood propofol concentration at which 50% of patients (EC50) were oriented (after surgery, oriented): 0.95 µg/mL
- average blood propofol concentration required (major surgery): 4.05 ± 1.01 µg/mL
- average blood propofol concentration required (non-major surgery): 2.97 ± 1.07 µg/mL
